Reference: ChEMBL document CHEMBL3132819, “2-Hydroxy-substituted cinnamic acids and acetanilides are selective growth inhibitors of Mycobacterium tuberculosis” (Medchemcomm, 2014)
Converted amounts (≈) assume the structure as drawn.

Columns and labels:
[1] = test system: Mycobacterium tuberculosis; test: Antibacterial activity against Mycobacterium tuberculosis H37Rv ATCC 27294 after 2 weeks by spot culture growth inhibition assay; type: functional; conditions: H37Rv ATCC 27294, 336 h
[2] = test system: Mycolicibacterium smegmatis; test: Antibacterial activity against Mycobacterium smegmatis MC2 155 assessed as growth inhibition; type: functional; conditions: str. MC2 155
[3] = Selectivity index, ratio of GI50 for mouse RAW264.7 cells to MIC for Mycobacterium tuberculosis H37Rv ATCC 27294; type: toxicity; conditions: read-out: Selectivity Index
[4] = Cytotoxicity against mouse RAW264.7 cells assessed as growth inhibition after 48 hrs by trypan blue assay; type: cell-based

## COC(=O)/C=C/c1cccc(OCC=C(C)C)c1
[1]
  MIC: 244 µM (≈ 60.1 µg/mL)
[2]
  MIC: > 600 µM
[3]
  selectivity ratio: 12.2

## O=C(O)/C=C/c1ccc(O)cc1 [COUMARIC ACID]
[1]
  MIC: 244 µM (≈ 40.1 µg/mL)
[2]
  MIC: > 600 µM
[4]
  GI50 at 48 h: 4560 µM
[3]
  selectivity ratio: 18.7

## CC(=O)Nc1cccc(O)c1 [METACETAMOL]
[1]
  MIC: > 661 µM
[2]
  MIC: > 600 µM
[4]
  GI50 at 48 h: 5340 µM
[3]
  selectivity ratio: < 8.08

## O=C(O)/C=C/c1ccccc1 [CINNAMIC ACID]
[1]
  MIC: 270 µM (≈ 40 µg/mL)
[2]
  MIC: > 600 µM
[4]
  GI50 at 48 h: 6550 µM
[3]
  selectivity ratio: 24.2

## CC(C)=CCOc1cccc(/C=C/C(=O)O)c1
[1]
  MIC: 172 µM (≈ 40 µg/mL)
[2]
  MIC: > 600 µM
[3]
  selectivity ratio: 7.53

## O=C(O)/C=C/c1ccccc1O [O-COUMARIC ACID]
[1]
  MIC: 122 µM (≈ 20 µg/mL)
[2]
  MIC: > 600 µM
[4]
  GI50 at 48 h: 4560 µM
[3]
  selectivity ratio: 37.4

## COC(=O)/C=C/c1ccccc1O
[1]
  MIC: 112 µM (≈ 20 µg/mL)
[2]
  MIC: > 600 µM
[4]
  GI50 at 48 h: 1120 µM
[3]
  selectivity ratio: 10

## COC(=O)/C=C/c1ccccc1OCC=C(C)C
[1]
  MIC: > 406 µM
[2]
  MIC: > 600 µM
[3]
  selectivity ratio: < 6.4

## O=C(O)/C=C/c1ccc2c(c1)OCO2
[1]
  MIC: 312 µM (≈ 60 µg/mL)
[2]
  MIC: > 600 µM
[3]
  selectivity ratio: 8.8

## COC(=O)/C=C/c1ccc(OCC=C(C)C)cc1
[1]
  MIC: 81.2 µM (≈ 20 µg/mL)
[2]
  MIC: > 600 µM
[4]
  GI50 at 48 h: 487 µM
[3]
  selectivity ratio: 6

## COC(=O)/C=C/c1cccc(O)c1
[1]
  MIC: 224 µM (≈ 39.9 µg/mL)
[2]
  MIC: > 600 µM
[4]
  GI50 at 48 h: 850 µM
[3]
  selectivity ratio: 3.8

## O=C(O)/C=C/c1cccc(O)c1
[1]
  MIC: 366 µM (≈ 60.1 µg/mL)
[2]
  MIC: > 600 µM
[4]
  GI50 at 48 h: 5290 µM
[3]
  selectivity ratio: 14.5

## CC(C)=CCOc1ccc(/C=C/C(=O)O)cc1
[1]
  MIC: 86.1 µM (≈ 20 µg/mL)
[2]
  MIC: > 600 µM
[4]
  GI50 at 48 h: 1340 µM
[3]
  selectivity ratio: 15.6

## COC(=O)/C=C/c1ccc(O)cc1 [METHYL P-HYDROXYCINNAMATE]
[1]
  MIC: 224 µM (≈ 39.9 µg/mL)
[2]
  MIC: > 600 µM
[4]
  GI50 at 48 h: 609 µM
[3]
  selectivity ratio: 2.72

## CO[C@H]1/C=C/O[C@@]2(C)Oc3c(C)c(O)c4c(O)c(c(/C=N/N5CCN(C)CC5)c(O)c4c3C2=O)NC(=O)/C(C)=C\C=C\[C@H](C)[C@H](O)[C@@H](C)[C@@H](O)[C@@H](C)[C@H](OC(C)=O)[C@@H]1C [RIFAMPIN]
[1]
  MIC: 0.0607 µM (≈ 0.05 µg/mL)
[4]
  GI50 at 48 h: 850 µM
[3]
  selectivity ratio: 14000

## CC(C)=CCC/C(C)=C/COc1ccc(/C=C/C(=O)O)cc1
[1]
  MIC: 66.8 µM (≈ 20.1 µg/mL)
[2]
  MIC: > 600 µM
[4]
  GI50 at 48 h: 210 µM
[3]
  selectivity ratio: 3.14

## CC(=O)Nc1ccccc1O
[1]
  MIC: 132 µM (≈ 20 µg/mL)
[2]
  MIC: > 600 µM
[4]
  GI50 at 48 h: 4200 µM
[3]
  selectivity ratio: 31.8

## CC(C)=CCOc1ccccc1/C=C/C(=O)O
[1]
  MIC: 258 µM (≈ 59.9 µg/mL)
[2]
  MIC: > 600 µM
[3]
  selectivity ratio: 6.52

## NNC(=O)c1ccncc1 [ISONIAZID]
[1]
  MIC: 0.73 µM (≈ 0.1 µg/mL)
[4]
  GI50 at 48 h: 21900 µM
[3]
  selectivity ratio: 30000

## CC(=O)Nc1ccc(O)cc1 [ACETAMINOPHEN]
[1]
  MIC: > 661 µM
[2]
  MIC: > 600 µM
[4]
  GI50 at 48 h: 1000 µM
[3]
  selectivity ratio: < 1.52

## COC(=O)/C=C/c1ccc(OC/C=C(\C)CCC=C(C)C)cc1
[1]
  MIC: 127 µM (≈ 39.9 µg/mL)
[2]
  MIC: > 600 µM
[4]
  GI50 at 48 h: 159 µM
[3]
  selectivity ratio: 1.25
